Structures can show the parent of a compound that is named as a salt.

For the assay, the system named is Acinetobacter baumannii ATCC17961. As to the kind of experiment: Antimicrobial susceptibility testing: 90% growth inhibitory concentration (IC90) determination. The note with it: Acinetobacter baumannii, ATCC17961, 16 h, 90% growth inhibitory concentration against Acinetobacter baumannii ATCC17961, Iso-Sensitest broth, OD 600 nm over 16 h; read-out: ATCC 17961 IC90. It is filed as cell-based. In a few lines:
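OD600 monitored each minute over 16 h at 35±2° C for bacteria (~5×10^5 CFU/mL final) in Iso-Sensitest medium with 10-point twofold compound series (e.g. 10-0.0195 μM final). Concentration giving 90% growth inhibition in log phase reported as IC90.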
For `Cn1c(-c2cn(-c3ccc(NCCCCCCN)cn3)nc2C(F)(F)F)cnc1C(=O)Nc1ccc(C(=O)N2CCN(C(=O)C3CC[N+](CC(=O)O)(CC4CNC4)CC3)CC2)c(Cl)c1` (stereo not drawn) [Example 51, 2-[4-[4-[4-[[5-[1-[5-(6-aminohexylamino)-2-pyridyl]-3-(trifluoromethyl)pyrazol-4-yl]-1-methyl-imidazole-2-carbonyl]amino]-2-chloro-benzoyl]piperazine-1-carbonyl]-1-(azetidin-3-ylmethyl)piperidin-1-ium-1-yl]acetic acid. 1:1 2,2,2-trifluoroacetic acid. 1:1 2,2,2-trifluoroacetate], the IC90 (usually the concentration needed for an effect of 90%) was 520 nM.

`CNc1ccnc(-n2cc(-c3cnc(C(=O)Nc4ccc(C(=O)N5CCN(C(=O)C6CC[N+](CC(=O)O)(CC7CNC7)CC6)CC5)c(Cl)c4)n3C)c(C(F)(F)F)n2)c1` (stereo not drawn) [Example 52, 2-[1-(azetidin-3-ylmethyl)-4-[4-[2-chloro-4-[[1-methyl-5-[1-[4-(methylamino)-2-pyridyl]-3-(trifluoromethyl)pyrazol-4-yl]imidazole-2-carbonyl]amino]benzoyl]piperazine-1-carbonyl]piperidin-1-ium-1-yl]acetic acid. 1:1 2,2,2-trifluoroacetate]: the IC90 turned out to be 530 nM.

For the compound `CN1CCN(c2ccc(-n3cc(-c4cnc(C(=O)Nc5ccc(C(=O)N6CCN(C(=O)C7CC[N+](CC(=O)O)(CC8CNC8)CC7)CC6)c(Cl)c5)n4C)c(C(F)(F)F)n3)nc2)CC1` (stereo not drawn) [Example 53, 2-[1-(azetidin-3-ylmethyl)-4-[4-[2-chloro-4-[[1-methyl-5-[1-[5-(4-methylpiperazino)-2-pyridyl]-3-(trifluoromethyl)pyrazol-4-yl]imidazole-2-carbonyl]amino]benzoyl]piperazine-1-carbonyl]piperidin-1-ium-1-yl]acetic acid. 1:1 formate], the IC90 amounted to 550 nM.

In the case of `Cn1c(-c2cn(-c3ccc(O)cn3)nc2C(F)(F)F)cnc1C(=O)Nc1ccc(C(=O)N2CCN(C(=O)C3CC[N+](CC(=O)O)(CC4CNC4)CC3)CC2)c(Cl)c1` (stereo not drawn) [Example 54, 2-[1-(azetidin-3-ylmethyl)-4-[4-[2-chloro-4-[[5-[1-(5-hydroxy-2-pyridyl)-3-(trifluoromethyl)pyrazol-4-yl]-1-methyl-imidazole-2-carbonyl]amino]benzoyl]piperazine-1-carbonyl]piperidin-1-ium-1-yl]acetic acid. 1:1 2,2,2-trifluoroacetate], the IC90 worked out at 550 nM.

`Cn1c(-c2cn(-c3ccc4[nH]cnc4n3)nc2C(F)(F)F)cnc1C(=O)Nc1ccc(C(=O)N2CCN(C(=O)[C@H]3CC[N@+](CC(=O)O)(CC4CNC4)CC3)CC2)c(Cl)c1` [Example 55, cis-2-[1-(azetidin-3-ylmethyl)-4-[4-[2-chloro-4-[[5-[1-(1H-imidazo[4,5-b]pyridin-5-yl)-3-(trifluoromethyl)pyrazol-4-yl]-1-methyl-imidazole-2-carbonyl]amino]benzoyl]piperazine-1-carbonyl]piperidin-1-ium-1-yl]acetic acid. 1:1 2,2,2-trifluoroacetate]: the IC90 was found to be 550 nM.

As to `Cn1c(-c2cn(-c3cccc(N)n3)nc2C(F)(F)F)cnc1C(=O)Nc1ccc(C(=O)N2CCN(C(=O)C3CC[N+](CC(=O)O)(CC4CNC4)CC3)CC2)c(Cl)c1` (stereo not drawn) [Example 56, 2-[4-[4-[4-[[5-[1-(6-amino-2-pyridyl)-3-(trifluoromethyl)pyrazol-4-yl]-1-methyl-imidazole-2-carbonyl]amino]-2-chloro-benzoyl]piperazine-1-carbonyl]-1-(azetidin-3-ylmethyl)piperidin-1-ium-1-yl]acetic acid. 1:1 2,2,2-trifluoroacetate], the IC90 stood at 560 nM.

As for `Cn1c(-c2cn(-c3ccc(NC[C@@H]4C[C@H](F)CN4)cn3)nc2C(F)(F)F)cnc1C(=O)Nc1ccc(C(=O)N2CCN(C(=O)C3CC[N+](CC(=O)O)(CC4CNC4)CC3)CC2)c(Cl)c1` (stereo partly drawn) [Example 57, 2-[1-(azetidin-3-ylmethyl)-4-[4-[2-chloro-4-[[5-[1-[5-[[(2S,4S)-4-fluoropyrrolidin-2-yl]methylamino]-2-pyridyl]-3-(trifluoromethyl)pyrazol-4-yl]-1-methyl-imidazole-2-carbonyl]amino]benzoyl]piperazine-1-carbonyl]piperidin-1-ium-1-yl]acetic acid. 1:1 2,2,2-trifluoroacetic acid. 1:1 2,2,2-trifluoroacetate], the IC90 stood at 610 nM.

Regarding `Cn1c(-c2cn(-c3ncc(N)cc3F)nc2C(F)(F)F)cnc1C(=O)Nc1ccc(C(=O)N2CCN(C(=O)[C@H]3CC[N@+](CC(=O)O)(CC4CNC4)CC3)CC2)c(Cl)c1` [Example 58, cis-2-[4-[4-[4-[[5-[1-(5-Amino-3-fluoro-2-pyridyl)-3-(trifluoromethyl)pyrazol-4-yl]-1-methyl-imidazole-2-carbonyl]amino]-2-chloro-benzoyl]piperazine-1-carbonyl]-1-(azetidin-3-ylmethyl)piperidin-1-ium-1-yl]acetic Acid.1:1 2,2,2-trifluoroacetate], the IC90 amounted to 630 nM.

Regarding `Cn1c(-c2cn(-c3ccc(N)cn3)nc2C(F)(F)F)cnc1C(=O)Nc1ccc(C(=O)N2CCN(C(=O)C3CC[N+](CC(=O)O)(CC4CNC4)CC3)CC2)c(Cl)c1` (stereo not drawn) [Example 59, 2-[4-[4-[4-[[5-[1-(5-amino-2-pyridyl)-3-(trifluoromethyl)pyrazol-4-yl]-1-methyl-imidazole-2-carbonyl]amino]-2-chloro-benzoyl]piperazine-1-carbonyl]-1-(azetidin-3-ylmethyl)piperidin-1-ium-1-yl]acetic acid. 1:1 formate], the IC90 came to 650 nM.

For the compound `Cn1c(-c2cn(-c3ccc(N)cn3)nc2C(F)(F)F)cnc1C(=O)Nc1ccc(C(=O)N2CCN(C(=O)C3CC[N+](CCCC(=O)O)(CC4CNC4)CC3)CC2)c(Cl)c1` (stereo not drawn) [Example 60, 4-[4-[4-[4-[[5-[1-(5-amino-2-pyridyl)-3-(trifluoromethyl)pyrazol-4-yl]-1-methyl-imidazole-2-carbonyl]amino]-2-chloro-benzoyl]piperazine-1-carbonyl]-1-(azetidin-3-ylmethyl)piperidin-1-ium-1-yl]butyric acid. 1:1 2,2,2-trifluoroacetate], the IC90 came out at 660 nM.

With `Cn1c(-c2cn(-c3ccc4c(n3)CCN4)nc2C(F)(F)F)cnc1C(=O)Nc1ccc(C(=O)N2CCN(C(=O)C3CC[N+](CC(=O)O)(CC4CNC4)CC3)CC2)c(Cl)c1` (stereo not drawn) [Example 61, 2-[1-(azetidin-3-ylmethyl)-4-[4-[2-chloro-4-[[5-[1-(2,3-dihydro-1H-pyrrolo[3,2-b]pyridin-5-yl)-3-(trifluoromethyl)pyrazol-4-yl]-1-methyl-imidazole-2-carbonyl]amino]benzoyl]piperazine-1-carbonyl]piperidin-1-ium-1-yl]acetic acid. 1:1 2,2,2-trifluoroacetate], the IC90 is 670 nM.

With `Cn1c(-c2cn(-c3n[nH]c4ccccc34)nc2C(F)(F)F)cnc1C(=O)Nc1ccc(C(=O)N2CCN(C(=O)C3CC[N+](CC(=O)O)(CC4CNC4)CC3)CC2)c(Cl)c1` (stereo not drawn) [Example 62, 2-[1-(azetidin-3-ylmethyl)-4-[4-[2-chloro-4-[[5-[1-(1H-indazol-3-yl)-3-(trifluoromethyl)pyrazol-4-yl]-1-methyl-imidazole-2-carbonyl]amino]benzoyl]piperazine-1-carbonyl]piperidin-1-ium-1-yl]acetic acid;formate], the IC90 is 680 nM.

(Values after US20250179066A1, “ZWITTERIONIC ANTIBACTERIAL COMPOUNDS” (Hoffmann-La Roche Inc., priority 2022, published 2025).)
